Key:
[1] = Antitumor activity against rat M1 cells implanted in rat assessed as increase in tumor volume coefficient followed by light illumination at 25 mg/kg, ip after 21 days relative to control; assay type: functional; conditions: route intraperitoneal
[2] = Induction of necrosis in rat fibroblasts at 1 uM after 20 min post illumination to red light; assay type: cell-based; conditions: fibroblast
Albumin = Albumin (Homo sapiens, UniProt P02768); test: Binding affinity to human serum albumin; assay type: ADME; conditions: isolated protein
[3] = Antitumor activity against rat M1 cells implanted in rat assessed as increase in tumor volume coefficient followed by light illumination at 25 mg/kg, ip after 14 days relative to control; assay type: functional; conditions: route intraperitoneal

Sequence of Albumin (P02768 whole entry): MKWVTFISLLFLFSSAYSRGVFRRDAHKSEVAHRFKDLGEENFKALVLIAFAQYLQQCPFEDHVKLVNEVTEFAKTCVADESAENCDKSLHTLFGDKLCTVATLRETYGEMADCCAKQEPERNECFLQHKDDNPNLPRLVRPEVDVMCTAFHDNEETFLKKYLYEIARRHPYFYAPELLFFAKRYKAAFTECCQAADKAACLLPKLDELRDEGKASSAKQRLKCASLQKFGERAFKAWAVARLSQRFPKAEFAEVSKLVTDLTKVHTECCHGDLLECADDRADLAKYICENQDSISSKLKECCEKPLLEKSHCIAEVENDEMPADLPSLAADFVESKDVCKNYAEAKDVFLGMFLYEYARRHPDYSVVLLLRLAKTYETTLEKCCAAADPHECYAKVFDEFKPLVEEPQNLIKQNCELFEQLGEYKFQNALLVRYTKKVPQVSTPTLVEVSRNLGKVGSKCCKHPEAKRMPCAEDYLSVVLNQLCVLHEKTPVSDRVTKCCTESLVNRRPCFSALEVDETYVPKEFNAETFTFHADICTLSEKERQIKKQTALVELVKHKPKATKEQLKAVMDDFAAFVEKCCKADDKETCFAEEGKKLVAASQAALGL

Question: Which results are given for `C=Cc1c(C)c2cc3nc(c(CC(=O)OC)c4[nH]c(cc5nc(cc1[nH]2)C(C)=C5CC)c(C)c4C(=O)NCCN)[C@@H](CCC(=O)OC)C3C` (some centres undefined)?
Answer: fold change (FC) [1]: 14.5; Activity [2]: Toxic; Kb (Albumin): 2 ×10⁵ /M; fold change (FC) [3]: 6.6

From ChEMBL document CHEMBL1143337, “Novel boronated chlorin e6-based photosensitizers: synthesis, binding to albumin and antitumour efficacy” (Bioorg Med Chem, 2009)
